We go through 44 compounds from ChEMBL document CHEMBL1138974 (Bioorg Med Chem Lett, 2006).

Some results are limits rather than exact numbers.

In the first data set the target is Nociceptin receptor (Homo sapiens, UniProt P41146). Kind of data set: Displacement of [3H]NOP from human NOP receptors expressed in HEK293 cells. The format is cell-based. The conditions noted are these: hek293. On the technique in general: Displacement assays read how much labelled ligand stays bound in the presence of the test substance.
Sequence of Nociceptin receptor (P41146 whole entry): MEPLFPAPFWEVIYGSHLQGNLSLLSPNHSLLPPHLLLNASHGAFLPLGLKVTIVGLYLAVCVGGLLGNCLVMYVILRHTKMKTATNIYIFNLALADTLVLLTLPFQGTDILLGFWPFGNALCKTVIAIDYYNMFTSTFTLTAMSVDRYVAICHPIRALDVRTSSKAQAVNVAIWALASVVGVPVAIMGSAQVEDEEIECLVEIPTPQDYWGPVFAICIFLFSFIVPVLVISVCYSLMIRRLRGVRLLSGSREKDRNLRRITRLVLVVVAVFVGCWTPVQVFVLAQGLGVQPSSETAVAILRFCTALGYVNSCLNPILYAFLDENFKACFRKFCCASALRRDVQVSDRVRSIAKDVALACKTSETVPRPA
As usually defined, the IC50 is the concentration that inhibits the measured activity by half. A higher IC50 goes with a need for much substance. The compound `O=C1NCC(c2ccccc2)C12CCN(C1CCCCC1(O)c1ccc(F)cc1)CC2` (single isomer, unassigned; diastereomer 2) gave an IC50 of more than 10000 nM.

A further data set addresses T1, Sodium- and chloride-dependent glycine transporter 2 (Homo sapiens, UniProt Q9Y345).
T1 sequence (Q9Y345 whole entry): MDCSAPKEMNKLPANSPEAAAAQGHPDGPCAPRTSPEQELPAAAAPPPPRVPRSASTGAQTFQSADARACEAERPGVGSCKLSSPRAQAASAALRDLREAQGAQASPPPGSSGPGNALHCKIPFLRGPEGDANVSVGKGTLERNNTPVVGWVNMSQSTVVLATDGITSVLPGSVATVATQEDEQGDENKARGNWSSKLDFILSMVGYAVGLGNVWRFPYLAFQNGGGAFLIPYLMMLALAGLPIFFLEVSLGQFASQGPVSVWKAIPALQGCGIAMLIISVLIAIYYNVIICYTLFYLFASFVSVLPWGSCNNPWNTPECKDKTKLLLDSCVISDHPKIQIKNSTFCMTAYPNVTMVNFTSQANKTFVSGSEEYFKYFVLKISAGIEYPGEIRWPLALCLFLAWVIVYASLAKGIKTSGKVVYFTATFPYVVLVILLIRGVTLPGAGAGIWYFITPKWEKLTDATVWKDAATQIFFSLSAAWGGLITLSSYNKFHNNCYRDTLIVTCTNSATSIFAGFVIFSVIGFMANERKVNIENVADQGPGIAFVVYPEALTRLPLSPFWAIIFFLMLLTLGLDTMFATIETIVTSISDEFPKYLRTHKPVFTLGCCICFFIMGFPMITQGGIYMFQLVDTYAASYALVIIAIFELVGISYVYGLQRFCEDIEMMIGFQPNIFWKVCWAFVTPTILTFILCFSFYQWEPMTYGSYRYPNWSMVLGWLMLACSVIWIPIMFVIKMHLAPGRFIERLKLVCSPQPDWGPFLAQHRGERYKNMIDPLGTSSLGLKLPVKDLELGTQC
Kind of data set: Inhibition of [3H]glycine uptake at human GlyT2 by radiometric assay.
Details: not given
What is called EC50 is the concentration that produces a half-maximal response. The low end stands for higher potency in that assay, the high end for lower potency in that assay. `O=C1NCN(c2ccccc2)C12CCN(C1CCCCC1(O)c1ccccc1)CC2` (stereo not given) gave an EC50 of 72000 nM.

Test system in a further data set: not listed separately
Kind of data set: Intrinsic clearance in human microsome. Type of data set: ADME. The conditions noted are these: microsomes.
For orientation: microsomal CLint means the rate of metabolic loss divided by the concentration. A low value points to greater metabolic stability. `O=C1NCC(c2ccc(F)cc2)C12CCN(C1CCCCC1(O)c1cccc(F)c1)CC2` (single isomer, unassigned; diastereomer 2): the microsomal CLint came out at 11 µL/min/mg.
Same read-out and setting: in the case of `O=C1NCC(c2ccc(F)cc2)C12CCN(C1CCCCC1(O)c1ccccc1F)CC2` (single isomer, unassigned; diastereomer 4) it was 28 µL/min/mg.

A further data set deals with T2, Sodium- and chloride-dependent glycine transporter 1 (Homo sapiens, UniProt P48067).
T2 sequence (P48067 whole entry): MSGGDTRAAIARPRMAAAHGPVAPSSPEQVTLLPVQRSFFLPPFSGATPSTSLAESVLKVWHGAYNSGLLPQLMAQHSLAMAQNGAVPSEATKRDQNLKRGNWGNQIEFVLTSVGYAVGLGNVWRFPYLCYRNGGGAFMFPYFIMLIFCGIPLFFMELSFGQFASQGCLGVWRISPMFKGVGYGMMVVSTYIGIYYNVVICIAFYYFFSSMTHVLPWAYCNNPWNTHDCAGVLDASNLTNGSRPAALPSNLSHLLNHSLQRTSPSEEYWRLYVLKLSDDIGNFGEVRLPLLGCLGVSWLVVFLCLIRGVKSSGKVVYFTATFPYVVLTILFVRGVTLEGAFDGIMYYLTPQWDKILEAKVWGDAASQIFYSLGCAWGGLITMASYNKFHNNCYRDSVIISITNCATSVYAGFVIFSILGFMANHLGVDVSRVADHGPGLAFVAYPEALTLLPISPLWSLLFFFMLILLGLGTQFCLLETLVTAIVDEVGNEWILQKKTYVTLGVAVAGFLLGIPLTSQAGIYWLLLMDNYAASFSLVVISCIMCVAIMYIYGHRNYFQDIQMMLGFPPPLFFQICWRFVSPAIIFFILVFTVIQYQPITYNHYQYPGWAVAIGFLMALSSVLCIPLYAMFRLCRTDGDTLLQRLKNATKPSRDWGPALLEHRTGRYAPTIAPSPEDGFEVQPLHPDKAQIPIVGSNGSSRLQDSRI
Kind of data set: Inhibition of [3H]glycine uptake at human GlyT1 by radiometric assay.
Details: not given
`O=C1NCN(c2ccccc2)C12CCN(C1CCCCC1(O)c1ccccc1)CC2` (stereo not given) returned a concentration for a half-maximal effect (EC50) of 44 nM.
Same read-out and setting: to `COc1ccc(C2(O)CCCCC2N2CCC3(CC2)C(=O)NCC3c2ccccc2)cc1` (stereo not given) belongs 4480 nM.
Still for that read-out and setting: to `O=C1NCC(c2ccc(F)cc2)C12CCN(C1CCCCC1(O)c1ccccc1OC(F)(F)F)CC2` (stereo not given) belongs 1390 nM; to `CS(=O)(=O)c1ccc(C2(O)CCCCC2N2CCC3(CC2)C(=O)NCC3c2ccc(F)cc2)cc1` (stereo not given), 18600 nM; to `O=C1NCC(c2ccc(F)cc2)C12CCN(C1CCCCC1(O)c1ccc(C(F)(F)F)cc1)CC2` (stereo not given), 1310 nM.
With `COc1cccc(C2(O)CCCCC2N2CCC3(CC2)C(=O)NCC3c2ccccc2)c1` (stereo not given), the EC50 was more than 30000 nM.
With `N#Cc1ccc(C2(O)CCCCC2N2CCC3(CC2)C(=O)NCC3c2ccc(F)cc2)cc1` (mixture of isomers), the response was half-maximal at 1950 nM (EC50).
In the case of `Cc1ccc(C2(O)CCCCC2N2CCC3(CC2)C(=O)NCC3c2ccc(F)cc2)cc1` (single isomer, unassigned; diastereomer 1), the EC50 came out at 420 nM.
For the compound `COc1ccc(C2(O)CCCCC2N2CCC3(CC2)C(=O)NCC3c2ccc(F)cc2)cc1` (single isomer, unassigned; diastereomer 1), the EC50 came to 3300 nM.
Compound `O=C1NCC(c2ccc(F)cc2)C12CCN(C1CCCCC1(O)c1ccccc1F)CC2` (single isomer, unassigned; diastereomer 1) showed an EC50 of 596 nM.
On to `Cc1cccc(C2(O)CCCCC2N2CCC3(CC2)C(=O)NCC3c2ccc(F)cc2)c1` (single isomer, unassigned; diastereomer 1), for which the EC50 is 2640 nM.
Compound `Cc1ccccc1C1(O)CCCCC1N1CCC2(CC1)C(=O)NCC2c1ccc(F)cc1` (single isomer, unassigned; diastereomer 1) registered an EC50 of 596 nM.
Compound `O=C1NCC(c2ccc(F)cc2)C12CCN(C1CCCCC1(O)c1cccc(F)c1)CC2` (single isomer, unassigned; diastereomer 1) gave an EC50 of 95 nM.
Take `O=C1NCC(c2ccccc2)C12CCN(C1CCCCC1(O)c1cccc(F)c1)CC2` (single isomer, unassigned; diastereomer 1): the EC50 was found to be 158 nM.
Consider `CC(C)(C)c1ccc(C2(O)CCCCC2N2CCC3(CC2)C(=O)NCC3c2ccc(F)cc2)cc1` (single isomer, unassigned; diastereomer 1), for which the EC50 is more than 30000 nM.
For `O=C1NCC(c2ccc(F)cc2)C12CCN(C1CCCCC1(O)c1cccc(Cl)c1)CC2` (single isomer, unassigned; diastereomer 1), a half-maximal effect (EC50) was put at 6250 nM.
As for `N#Cc1ccc(C2(O)CCCCC2N2CCC3(CC2)C(=O)NCC3c2ccc(F)cc2)cc1` (single isomer, unassigned; diastereomer 2), the midpoint of the response, the EC50, lay at 11300 nM.
In turn, `Cc1ccc(C2(O)CCCCC2N2CCC3(CC2)C(=O)NCC3c2ccc(F)cc2)cc1` (single isomer, unassigned; diastereomer 2) returned an EC50 of more than 30000 nM.
In the case of `COc1ccc(C2(O)CCCCC2N2CCC3(CC2)C(=O)NCC3c2ccc(F)cc2)cc1` (single isomer, unassigned; diastereomer 2), it took 1180 nM to reach a half-maximal effect (EC50).
`O=C1NCC(c2ccc(F)cc2)C12CCN(C1CCCCC1(O)c1ccccc1F)CC2` (single isomer, unassigned; diastereomer 2) had an EC50 of 110 nM.
`O=C1NCC(c2ccccc2)C12CCN(C1CCCCC1(O)c1ccc(F)cc1)CC2` (single isomer, unassigned; diastereomer 2): a half-maximal response (EC50) required 825 nM.
Turning to `Cc1cccc(C2(O)CCCCC2N2CCC3(CC2)C(=O)NCC3c2ccc(F)cc2)c1` (single isomer, unassigned; diastereomer 2), it took 10700 nM to reach a half-maximal effect (EC50).
In turn, `COc1cccc(C2(O)CCCCC2N2CCC3(CC2)C(=O)NCC3c2ccc(F)cc2)c1` (single isomer, unassigned; diastereomer 2) returned an EC50 of 2600 nM.
Same read-out and setting: in the case of `O=C1NCC(c2ccc(F)cc2)C12CCN(C1CCCCC1(O)c1cccc(F)c1)CC2` (single isomer, unassigned; diastereomer 2) it was 77 nM.
`O=C1NCC(c2ccccc2)C12CCN(C1CCCCC1(O)c1cccc(F)c1)CC2` (single isomer, unassigned; diastereomer 2): the EC50 is 2600 nM.
Compound `CC(C)(C)c1ccc(C2(O)CCCCC2N2CCC3(CC2)C(=O)NCC3c2ccc(F)cc2)cc1` (single isomer, unassigned; diastereomer 2) came in with a concentration for a half-maximal effect (EC50) of more than 30000 nM.
Same read-out and setting: to `O=C1NCC(c2ccc(F)cc2)C12CCN(C1CCCCC1(O)c1cccc(Cl)c1)CC2` (single isomer, unassigned; diastereomer 2) belongs 2340 nM.
Compound `Cc1ccc(C2(O)CCCCC2N2CCC3(CC2)C(=O)NCC3c2ccc(F)cc2)cc1` (single isomer, unassigned; diastereomer 3) returned an EC50 of 437 nM.
With `COc1ccc(C2(O)CCCCC2N2CCC3(CC2)C(=O)NCC3c2ccc(F)cc2)cc1` (single isomer, unassigned; diastereomer 3), a half-maximal effect (EC50) was put at 1130 nM.
`COc1cccc(C2(O)CCCCC2N2CCC3(CC2)C(=O)NCC3c2ccc(F)cc2)c1` (single isomer, unassigned; diastereomer 3) returned a concentration giving a half-maximal response (EC50) of 127 nM.
The same measure, in the same setting: in the case of `Cc1ccccc1C1(O)CCCCC1N1CCC2(CC1)C(=O)NCC2c1ccc(F)cc1` (single isomer, unassigned; diastereomer 3) it was 17700 nM; in that of `O=C1NCC(c2ccccc2)C12CCN(C1CCCCC1(O)c1cccc(F)c1)CC2` (single isomer, unassigned; diastereomer 3), 127 nM; in that of `Cc1ccc(C2(O)CCCCC2N2CCC3(CC2)C(=O)NCC3c2ccc(F)cc2)cc1` (single isomer, unassigned; diastereomer 4), 132 nM.
The compound `O=C1NCC(c2ccc(F)cc2)C12CCN(C1CCCCC1(O)c1ccccc1F)CC2` (single isomer, unassigned; diastereomer 4) came in with an EC50 of 69 nM.
`COc1cccc(C2(O)CCCCC2N2CCC3(CC2)C(=O)NCC3c2ccc(F)cc2)c1` (single isomer, unassigned; diastereomer 4) showed an EC50 of 5300 nM.
Compound `Cc1ccccc1C1(O)CCCCC1N1CCC2(CC1)C(=O)NCC2c1ccc(F)cc1` (single isomer, unassigned; diastereomer 4) gave an EC50 of 69 nM.
Regarding `O=C1NCC(c2ccc(F)cc2)C12CCN(C1CCCCC1(O)c1cccc(F)c1)CC2` (single isomer, unassigned; diastereomer 4), a half-maximal effect (EC50) was put at 646 nM.
`O=C1NCC(c2ccccc2)C12CCN(C1CCCCC1(O)c1cccc(F)c1)CC2` (single isomer, unassigned; diastereomer 4): the concentration for a half-maximal effect (EC50) came to 5300 nM.
The same measure, in the same setting: in the case of `COc1ccc(C2(O)CCCCC2N2CCC3(CC2)C(=O)NCC3c2ccc(F)cc2)cc1` (stereo in doubt) it was 158 nM; in that of `O=C1NCC(c2ccc(F)cc2)C12CCN(C1CCCCC1(O)c1ccccc1F)CC2` (stereo in doubt), 1770 nM; in that of `COc1cccc(C2(O)CCCCC2N2CCC3(CC2)C(=O)NCC3c2ccc(F)cc2)c1` (stereo in doubt), 158 nM.
The same measure, in the same setting: to `Cc1ccccc1C1(O)CCCCC1N1CCC2(CC1)C(=O)NCC2c1ccc(F)cc1` (stereo in doubt) belongs 110 nM; to `O=C1NCC(c2ccc(F)cc2)C12CCN(C1CCCCC1(O)c1cccc(Cl)c1)CC2` (stereo in doubt; form 1), 118 nM.
As for `O=C1NCC(c2ccc(F)cc2)C12CCN(C1CCCCC1(O)c1cccc(Cl)c1)CC2` (stereo in doubt; form 2), a half-maximal effect (EC50) was put at 73 nM.

Test system in a further data set: not listed separately
Kind of data set: Intrinsic clearance in mouse microsome. The format is ADME. The conditions noted are these: microsomes.
Take `O=C1NCC(c2ccc(F)cc2)C12CCN(C1CCCCC1(O)c1cccc(F)c1)CC2` (single isomer, unassigned; diastereomer 2): the microsomal CLint is 16 µL/min/mg.
`O=C1NCC(c2ccc(F)cc2)C12CCN(C1CCCCC1(O)c1ccccc1F)CC2` (single isomer, unassigned; diastereomer 4) showed a microsomal CLint of 39 µL/min/mg.
